Results on 37 compounds are retold here after patent EP3409278B1, “HETEROCYCLIC PROTEIN KINASE INHIBITORS” (Tolero Pharmaceuticals, Inc., priority 2011, dated 2013).

Where two headings read alike, the source gives them in different places.

The test has as its target Pim-1 kinase (Homo sapiens, UniProt P11309). Kind of test: Pim-1 kinase inhibition assay (Promega Kinase-Glo). Format: biochemical. From the text:
One illustrative manner in which Pim-1 kinase activity can be determined is by quantifying the amount of ATP remaining in solution after an in vitro Pim-1 kinase reaction. The Kinase-Glo Assay Kit (Promega, Inc., Madison, WI) allows this. The amount of ATP remaining in the solution after the kinase reaction serves as a substrate for the luciferase to catalyze luciferin to oxyluciferin plus one photon of light. Thus, the luminescent signal read by the Luminoskan Ascent Instrument (Thermo Electron Corp., Milford, MA) correlates with the amount of ATP present after the kinase reaction and inversely correlates with the amount of kinase acitivity. […] These assays are set up in duplicate 50ul volumes in white, flat bottom 96 well plates. […] This solution is incubated at 30 degrees Celsius at 360rpm for two hours. Following the incubation, 50ul of Kinase-Glo reagent is added to each well, including all positive and negative control wells, and incubated at room temperature for 15 minutes. […] The IC50 values can then be calculated for each inhibitor tested.

Setting [1] is: Table IV, Kinase-Glo, 10uM ATP, read-out: IC50 on Pim1.

Sequence of Pim-1 kinase (P11309 whole entry): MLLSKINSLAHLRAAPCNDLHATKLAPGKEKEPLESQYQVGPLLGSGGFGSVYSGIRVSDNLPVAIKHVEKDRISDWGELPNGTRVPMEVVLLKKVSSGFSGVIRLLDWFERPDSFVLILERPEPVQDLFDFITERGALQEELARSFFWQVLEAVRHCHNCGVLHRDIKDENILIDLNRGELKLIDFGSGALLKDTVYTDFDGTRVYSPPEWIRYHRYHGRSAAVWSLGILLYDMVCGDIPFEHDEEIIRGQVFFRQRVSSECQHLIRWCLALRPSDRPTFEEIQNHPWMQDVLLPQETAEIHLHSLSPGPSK

On to `CC1(O)CCC(Nc2ccn3ncc(-c4cccc(C(F)(F)F)c4)c3n2)CC1` (single isomer, unassigned) [8-55, 1-Methyl-4-((3-(3-(trifluoromethyl)phenyl)pyrazolo[1,5-a]pyrimidin-5-yl)amino)-trans-cyclohexanol], for which, under setting [1], the IC50 was determined as 54 nM.
On the same count and under the same terms, to `CC(C)(O)CCNc1ccc2ncc(-c3cccc(OC(F)(F)F)c3)n2n1` [8-3, 2-Methyl-4-((3-(3-(trifluoromethoxy)phenyl)imidazo[1,2-b]pyridazin-6-yl)amino)butan-2-ol] belongs 30 nM; to `O[C@H]1CC[C@H](Oc2ccc3ncc(-c4cccc(OC(F)(F)F)c4)n3n2)CC1` [8-4, 4-((3-(3-(Trifluoromethoxy)phenyl)imidazo[1,2-b]pyridazin-6-yl)oxy)-trans-cyclohexanol], 7 nM; to `O[C@@H]1CC[C@@H](Nc2ccc3ncc(-c4cccc(OC(F)(F)F)c4)n3n2)C1` [8-5, (1R,3R)3-((3-(3-(Trifluoromethoxy)phenyl)imidazo[1,2-b]pyridazin-6-yl)amino)cyclopentanol], 36 nM.
For `CC(C)(O)CNc1ccc2ncc(-c3cccc(OC(F)(F)F)c3)n2n1` [8-6, 2-Methyl-1-((3-(3-(trifluoromethoxy)phenyl)imidazo[1.2-b]pyridazin-6-yl)amino)propan-2-ol], the IC50 under setting [1] came out at 30 nM.
`O[C@H]1C[C@H](CNc2ccc3ncc(-c4cccc(OC(F)(F)F)c4)n3n2)C1` [8-7, 3-(((3-(3-(Trifluoromethoxy)phenyl)imidazo[1,2-b]pyridazin-6-yl)amino)methyl)-trans-cyclobutanol]: the IC50 under setting [1] was found to be 10 nM.
`O=S1(=O)CCC(Nc2ccc3ncc(-c4cccc(OC(F)(F)F)c4)n3n2)CC1` [8-14, 4-((3-(3-(Trifluoromethoxy)pheny/)imidazo[1,2-]pyridazin-6-yl)amino)tetrahydro-2H-thiopyran 1,1-dioxide]: the IC50 under setting [1] worked out at 1190 nM.
Still for that read-out and setting: to `O=S1(=O)CCN(c2ccc3ncc(-c4cccc(OC(F)(F)F)c4)n3n2)CC1` [8-15, 4-(3-(3-(Trifluoromethoxy)phenyl)imidazo[1,2-b]pyridazin-6-yl)thiomorpholine 1,1-dioxide] belongs 2830 nM; to `CC(C)O[C@H]1CC[C@H](Nc2ccc3ncc(-c4cccc(OC(F)(F)F)c4)n3n2)CC1` [8-16, 4-(trans-Isopropoxycyclohexyl)-3-(3-(trifluoromethoxy)phenyl)imidazo[1,2-b]pyridazin-6-amine], 503 nM.
On to `FC1(F)CCC(CNc2ccc3ncc(-c4cccc(OC(F)(F)F)c4)n3n2)CC1` [8-17, N-((4,4-difluorocyclohexyl)methyl)-3-(3-(trifluoromethoxy)phenyl)imidazo[1,2-b]pyridazin-6-amine], for which half-maximal inhibition (IC50) was put at 173 nM.
For the compound `FC(F)(F)Oc1cccc(-c2cnc3ccc(NCC4CCSCC4)nn23)c1` [8-18, N-((tetrahydro-2H-thiopyran-4-yl)methyl)-3-(3-(trifluoromethoxy)phenyl)imidazo[1,2-b]pyridazin-6-amine], the IC50 under setting [1] is 53 nM.
Turning to `FC(F)(F)Oc1cccc(-c2cnc3ccc(NCC4CCOCC4)nn23)c1` [8-19, N-((tetrahydro-2H-pyran-4-yl)methyl)-3-(3-(trifluoromethoxy)phenyl)imidazo[1,2-b]pyridazin-6-amine], the IC50 under setting [1] is 13 nM.
For `CC(C)(O)C(=O)N1CCC(CNc2ccc3ncc(-c4cccc(OC(F)(F)F)c4)n3n2)CC1` [8-20, 2-Hydroxy-2-methyl-1-(4-(((3-(3-(trifluoromethoxy)phenyl)imidazo[1,2-b]pyridazin-6-yl)amino)methyl)piperidin-1-yl)propan-1-one], the IC50 under setting [1] was found to be 16 nM.
As to `O=C(CN1CCOCC1)N1CCC(CNc2ccc3ncc(-c4cccc(OC(F)(F)F)c4)n3n2)CC1` [8-21, 2-Morpholino-1-(4-(((3-(3-(trifluoromethoxy)phenyl)imidazo[1,2-b]pyridazin-6-yl)amino)methyl)piperidin-1-yl)ethanone], the IC50 under setting [1] amounted to 46 nM.
Consider `O=C1CC(CNc2ccc3ncc(-c4cccc(OC(F)(F)F)c4)n3n2)CCN1` (stereo not shown) [8-23, 4-(((3-(3-(Trifluoromethoxy)phenyl)imidazo[1,2-b]pyridazin-6-yl)amino)methyl)piperidin-2-one], for which the IC50 under setting [1] turned out to be 1630 nM.
In the case of `NCC1CCN(c2ccc3ncc(-c4cccc(OC(F)(F)F)c4)n3n2)C(=O)C1` (stereo not shown) [8-24, 4-(Aminomethyl)-1-(3-(3-(trifluoromethoxy)phenyl)imidazo[1,2-b]pyridazin-6-y/)piperidin-2-one], under setting [1], the IC50 turned out to be 34 nM.
As to `N[C@H]1CCCN(c2ccc3ncc(-c4cccc(OC(F)(F)F)c4)n3n2)C1` [8-25, (S)-1-(3-(3-(Trifluoromethoxy)phenyl)imidazo[1,2-b]pyridazin-6-yl)piperidin-3-amine], the half-inhibitory concentration (IC50) under setting [1] amounted to 30 nM.
`OCCN1CCC(CNc2ccc3ncc(-c4cccc(OC(F)(F)F)c4)n3n2)CC1` [8-27, 2-(4-(((3-(3-(Trifluoromethoxy)phenyl)imidazo[1,2-b]pyridazin-6-yl)amino)methyl)piperidin-1-yl)ethanol] had an IC50 of 23 nM.
For the compound `FC(F)(F)Oc1cccc(-c2cnc3ccc(OCC4CCOCC4)nn23)c1` [8-28, 6-((Tetrahydro-2H-pyran-4-yl)methoxy)-3-(3-(trifluoromethoxy)phenyl)imidazo[1,2-b]pyridazine], under setting [1], the IC50 turned out to be 553 nM.
For the compound `FC(F)(F)c1cccc(-c2cnc3ccc(NC4CCOCC4)nn23)c1` [8-33, N-(Tetrahydro-2H-pyran-4-yl)-3-(3-(trifluoromethyl)phenyl)imidazo[1,2-b]pyridazin-6-amine], the IC50 under setting [1] was determined as 33 nM.
Consider `CO[C@H]1CC[C@H](Nc2ccc3ncc(-c4cccc(Cl)c4)n3n2)CC1` [8-38, 3-(3-Chlorophenyl)-N-(4-trans-methoxycyclohexyl)imidazo[1,2-b]pyridazin-6-amine], for which the concentration for half-maximal inhibition (IC50) under setting [1] is 18 nM.
As to `Clc1cccc(-c2cnc3ccc(NC4CCOCC4)nn23)c1` [8-39, 3-(3-Chlorophenyl)-N-(tetrahydro-2H-pyran-4-yl)imidazo[1,2-b]pyridazin-6-amine], the half-inhibitory concentration (IC50) under setting [1] stood at 48 nM.
Still for that read-out and setting: as for `O=S1(=O)CCC(CNc2ccc3ncc(-c4cccc(Cl)c4)n3n2)CC1` [8-40], the figure is 200 nM; as for `CC(C)(O)CCOc1ccc2ncc(-c3cccc(OC(F)(F)F)c3)n2n1` [8-41, 2-Methyl-4-((3-(3-(Trifluoromethoxy)phenyl)imidazo[1,2-b]pyridazin-6-yl)oxy)butan-2-ol], 226 nM; as for `COCCOc1ccc2ncc(-c3cccc(OC(F)(F)F)c3)n2n1` [8-42, 6-(2-Methoxyethoxy)-3-(3-(trifluoromethoxy)phenyl)imidazo[1,2-b]pyridazine], 1970 nM.
Take `CN(C)CC(=O)N1CCC(CNc2ccc3ncc(-c4cccc(OC(F)(F)F)c4)n3n2)CC1` [8-45, 2-(dimethylamino)-1-(4-(((3-(3-(trifluoromethoxy)phenyl)imidazo[1,2-b]pyridazin-6-yl)amino)methyl)piperidin-1-yl)ethanone]: the IC50 under setting [1] was determined as 16 nM.
Turning to `CC(C)(O)[C@H]1CC[C@H](Nc2ccn3ncc(-c4cccc(OC(F)(F)F)c4)c3n2)CC1` [8-47], the IC50 under setting [1] stood at 204 nM.
`C[C@]1(O)CC[C@H](Nc2ccn3ncc(-c4cccc(OC(F)(F)F)c4)c3n2)CC1` [8-48, 1-Methyl-4-((3-(3-(trifluoromethoxy)phenyl)pyrazolo[1,5-a]pyrimidin-5-yl)amino)-trans-cvclohexanol]: the half-maximal inhibitory concentration (IC50) under setting [1] came out at 197 nM.
Regarding `CO[C@H]1CC[C@H](Nc2ccn3ncc(-c4cccc(OC(F)(F)F)c4)c3n2)CC1` [8-49, 4-(trans-Methoxycyclohexyl)-3-(3-(trifluoromethoxy)phenyl)pyazolo[1,5-a]pyrimidin-5-amine], the IC50 under setting [1] came out at 378 nM.
Same read-out and setting: to `FC(F)(F)Oc1cccc(-c2cnn3ccc(NC4CCOCC4)nc23)c1` [8-50, N-(Tetrahydro-2H-pyran-4-yl)-3-(3-(trifluoromethoxy)phenyl)pyrazolo[1,5-a]pyrimidin-5-amine] belongs 633 nM.
In the case of `O=S1(=O)CCC(CNc2ccn3ncc(-c4cccc(OC(F)(F)F)c4)c3n2)CC1` [8-51, 4-(((3-(3-(Trifluoromethoxy)phenyl)pyrazolo[1,5-a]pyrimidin-5-y/)amino)methyl)tetrahydro-2H-thiopyran 1,1-dioxide], the IC50 under setting [1] turned out to be 148 nM.
For `N[C@H]1CC[C@H](Nc2ccn3ncc(-c4cccc(OC(F)(F)F)c4)c3n2)CC1` [8-52, N-(3-(3-(Trifluoromethoxy)phenyl)pyrazolo[1,5-a]pyrimidin-5-yl)cyclohexane-1,4-trans-diamine], under setting [1], the IC50 is 5 nM.
In the case of `N[C@H]1CCCN(c2ccn3ncc(-c4cccc(OC(F)(F)F)c4)c3n2)C1` [8-53, (S)-1-(3-(3-(Trifluoromethoxy)phenyl)pyrazolo[1,5-a]pyrimidin-5-yl)piperidin-3-amine], the half-maximal inhibitory concentration (IC50) under setting [1] was 132 nM.
`CC(C)(O)[C@H]1CC[C@H](Nc2ccn3ncc(-c4cccc(C(F)(F)F)c4)c3n2)CC1` [8-56]: under setting [1], the IC50 was 17 nM.
Consider `CO[C@H]1CC[C@H](Nc2ccn3ncc(-c4cccc(C(F)(F)F)c4)c3n2)CC1` [8-57, 4-(trans-Methoxycyclohexyl)-3-(3-(trifluoromethyl)phenyl)pyrazolo[1,5-a]pyrimidin-5-amine], for which the concentration for half-maximal inhibition (IC50) under setting [1] is 66 nM.
With `FC(F)(F)c1cccc(-c2cnn3ccc(NC4CCOCC4)nc23)c1` [8-58, N-(Tetrahydro-2H-pyran-4-yl)-3-(3-(trifluoromethyl)phenyl)pyrazolo[1,5-a]pyrimidin-5-amine], under setting [1], the 50% inhibitory concentration (IC50) came out at 149 nM.
Same read-out and setting: to `O=S1(=O)CCC(CNc2ccn3ncc(-c4cccc(C(F)(F)F)c4)c3n2)CC1` [8-59, 4-(((3-(3-(Trifluoromethyl)phenyl)pyrazolo[1,5-a]pyrimidin-5-yl)amino)methyl)tetrahydro-2H-thiopyran 1,1-dioxide] belongs 111 nM.
